Data published in ChEMBL document CHEMBL3507680, “University of Dundee, Gates Library screen for HepG2 cell viability”.

Assay: Human HepG2 cell viability assay in 384 well format
Type: toxicity, cell-based
Parameters: dose 125 nL, time 70.5 hour; cytotoxicity at 70.5 h: concentration not given beside the values
Settings: HepG2 cells, read-out: Inhibition

| SMILES | cytotoxicity at 70.5 h [%] |
| --- | --- |
| O=C(CCNC(=O)c1ccccc1)Nc1ccncc1 | -18 |
| Cn1cc(NC(=O)Cn2c(CS(C)(=O)=O)nc3ccccc32)cn1 | -6.35 |
| O=C(NCCCNC(=O)c1cccc(O)c1)NCc1ccccc1F | -9.83 |
| Cc1nc(C2(NCC(=O)NC(=O)NCc3cccs3)CCCCC2)no1 | -12.5 |
| Cc1ccc(C(=O)N(C)Cc2cc(Br)cs2)c(=O)[nH]1 | -11.5 |
| Cc1ccc(C(=O)N(C)Cc2cscn2)c(=O)[nH]1 | -12.9 |
| CCc1ccc(C(=O)N2CCC(c3nncn3CC)CC2)cc1 | 33.4 |
| Cc1nn(C)c2sc(C(=O)N3CCCC(n4ccnc4C)C3)cc12 (centres undefined) | -7.74 |
| Cc1ccc(CC2CCCN2CC(=O)NCc2cccnc2)cc1 (centres undefined) | -15.4 |
| Cn1cc(CC2CCN(C(=O)NCCc3cccc(O)c3)C2)cn1 (centres undefined) | -12.6 |
| CCCN1CCN(C(=O)c2scnc2C)CC1 | -3.56 |
| Cn1cc(CC2CCN(C(=O)NCc3cn4ccsc4n3)C2)cn1 (centres undefined) | 23.7 |
| O=C(C1CCC1)N1CCC2(CC1)OCCO2 | -7.76 |
| Cc1ccccc1C1(CNC(=O)NCCc2nnc3n2CCC3)CC1 | -17.5 |
| Cc1nn(C)c(C)c1C(=O)N1CCOCC1CC(=O)c1ccco1 (centres undefined) | -18.7 |
| COCCOCC(=O)Nc1ccc(C)cc1F | -7.66 |
| CCn1cnnc1C1CCN(C(=O)c2cnc3ccccc3n2)CC1 | -16.4 |
| CN(CCc1cccs1)C1CCCN(Cc2noc(C3CC3)n2)C1 (centres undefined) | 8.79 |
| CC(C)c1nnc2n1CC(CNCc1ccncc1)CC2 (centres undefined) | -3.85 |
| CN(Cc1cnn(C)c1)C(=O)NC1CCS(=O)(=O)C1 (centres undefined) | -6.09 |
| c1cc(C2CCCN2Cc2nnnn2C2CC2)cs1 (centres undefined) | -8.27 |
| Cn1cc(CCNC(=O)NC2CCS(=O)(=O)C2)cn1 (centres undefined) | -1.53 |

| SMILES | cytotoxicity at 70.5 h [%] |
| --- | --- |
| CNC(=O)CCNC(=O)c1cccc(Cn2nc(C)cc2C)c1 | -3.48 |
| Cc1nn(C)c(N2CCOCC2)c1CNC(C)c1cccnc1 (centres undefined) | -8.78 |
| Cc1ncc(CNC(=O)Nc2cc(C(F)(F)F)c[nH]c2=O)s1 | 0.0851 |
| CN(C)S(=O)(=O)N1CCC(Oc2ccc(C#N)cc2)CC1 | -4.56 |
| Cc1cc(C)n(Cc2ccc(C(=O)NCCN3CCOCC3)cc2)n1 | 1.27 |
| CCc1nnc2n1CCN(C(=O)c1cnc3ccccc3n1)C2 | -4.54 |
| CC(CN1CCN(C)CC1)NC(=O)c1cc(Cl)c2c(c1)OCO2 (centres undefined) | -0.705 |
| CCc1nnc2n1CCN(C(=O)c1ccc3nc(C)c(C)nc3c1)C2 | 1.25 |
| CCc1nnc2n1CCN(C(=O)c1ccc3[nH]cnc3c1)C2 | 4.85 |
| COc1ccc(OC)c(CNCCc2cc(F)cc3c2OCOC3)c1 | 9.35 |
| O=C(CCc1cscn1)NS(=O)(=O)c1ccc2ccccc2c1 | -5.17 |
| c1cc2c(cc1C1CCCN1Cc1nnnn1C1CC1)OCCO2 (centres undefined) | 13.7 |
| CC(C)c1n[nH]c(C2CN(C(=O)CCCn3cccn3)CCO2)n1 (centres undefined) | -3.52 |
| CN(Cc1cnn(C)c1)C(=O)NC1CCC(O)CC1 (centres undefined) | -7.28 |
| Cc1ccc(CNCC2CCc3nnc(C(C)C)n3C2)s1 (centres undefined) | -6.69 |
| CC(C)c1nc(CN(C)C2CCN(Cc3nc(C4CC4)no3)C2)no1 (centres undefined) | 12 |
| CN(C)CC(=O)N1CCc2onc(Cn3cccn3)c2C1 | -9.72 |
| COCC1CC2(CCN(Cc3cccnc3)CC2)CN1C(C)C (centres undefined) | -7.91 |
| Cn1cc(-c2nnn3c2COC(CNCc2ccccn2)C3)cn1 (centres undefined) | 14.6 |
| O=C(c1cccnc1)N1CCC2(CC1)CCN(Cc1ccccn1)C2=O | -9.02 |
| Cn1cc(-c2nnn3c2COC(CNCc2ccncc2)C3)cn1 (centres undefined) | -2.68 |
| O=C(Cc1cccnc1)N1CCCC2(CCN(CC3CCOCC3)C2)C1 (centres undefined) | 1.37 |

| SMILES | cytotoxicity at 70.5 h [%] |
| --- | --- |
| Cn1cccc1C(=O)N1CCN2C[C@H](Oc3cccnc3)C[C@H]2C1 | 21.7 |
| Cn1cc(-c2nnn3c2COC(CNC(=O)c2cccs2)C3)cn1 (centres undefined) | 22.3 |
| Cn1cc(-c2nnn3c2COC(CNCc2cccnc2)C3)cn1 (centres undefined) | 18.5 |
| O=C(c1ccnnc1)N1CCN2C[C@H](Oc3cccnc3)C[C@H]2C1 | -0.791 |
| O=C(c1cnccn1)N1CCN2C[C@H](Oc3cccnc3)C[C@H]2C1 | 4.06 |
| O=C(c1ccc[nH]1)N1CCC2(CC1)CC(Oc1cccnc1)CO2 (centres undefined) | 25 |
| O=C(c1cnccn1)N1CCC2(CC1)CC(Oc1ccccc1)CO2 (centres undefined) | 25.9 |
| Cc1ccoc1C(=O)N1C[C@H](OCC2CC2)[C@H]2OCCC[C@H]21 | -0.347 |
| COC[C@@H]1CC[C@H]2[C@H](CCN2S(=O)(=O)c2ccc(C)cc2)O1 | -4.48 |
| CS(=O)(=O)N1CCC2(CC1)CC(CC(=O)NCC1CC1)c1ccccc12 (centres undefined) | 5.79 |
| O=c1cc(Cn2cncn2)nc2n1CCCN(Cc1ccoc1)C2 | -0.379 |
| Cc1ccoc1C(=O)N1C[C@@H](OCC2CC2)[C@H]2OCCC[C@H]21 | -1.01 |
| COCCN1C[C@@H]2[C@@H](OC)CCN(C(=O)c3cccc(OC)c3)[C@@H]2C1 | 2 |
| Cc1ccc(CN2CCC3(CC2)C(=O)NCCN3CC2CC2)o1 | 8.52 |
| CN1CCC2(CC1)CN(C(=O)c1cccnc1)Cc1ccccc12 | 9.45 |
| CC(=O)N1CC[C@H]2OCC[C@@H](C(=O)NCc3ccco3)[C@H]2C1 | -12.4 |
| CCCc1cc(NCCCC2CCOC2)n2nccc2n1 (centres undefined) | -2.1 |
| CCc1ccc2nc(NCC(O)CO)cc(C)c2c1 (centres undefined) | 1.81 |
| N[C@@H]1c2ccccc2C2(CCN(c3ccc(C(F)(F)F)cn3)CC2)[C@H]1O | -15.9 |
| CCC(NC(=O)CCCN1CCCCC1)c1cn2cccnc2n1 (centres undefined) | -0.954 |
| C[C@@H]1CC[C@@H](C)N1C(=O)c1cc(COc2ccccc2)[nH]n1 | -0.483 |
| Nc1nc(CCNc2ncnc3c2CCN(C(=O)C2CC2)C3)cs1 | -11.6 |

| SMILES | cytotoxicity at 70.5 h [%] |
| --- | --- |
| Cc1nc2c(C)cccc2cc1C(=O)N1CCC2(CCNCC2)CC1 | -5.65 |
| O=C(NC1CCCNC1=O)c1ccc2nc(-c3ccc(F)cc3)cn2c1 (centres undefined) | 15 |
| CS(=O)(=O)N1CCCn2nc(CNc3ncccn3)cc2C1 | -1.06 |
| O=C(NC1CC1)[C@H]1C[C@@H]2CCN(Cc3ccc4c(c3)OCO4)C[C@@H]2O1 | -12.5 |
| O=C(NCC1CC1)[C@H]1C[C@@H]2CCN(Cc3ccc4c(c3)OCO4)C[C@@H]2O1 | -11.6 |
| O=C(c1cocn1)N1C[C@H]2CCC[C@@]2(COc2ccccn2)C1 | 8.39 |
| Cc1noc(C)c1C(=O)N1C[C@@H]2COC[C@]2(COc2ccccn2)C1 | 10.4 |
| Cc1cccc(CN2Cc3ccnn3CC(COCC3CC3)C2)n1 (centres undefined) | 8.5 |
| O=C(c1ncccn1)N1C[C@H]2CCC[C@@]2(COc2ccccn2)C1 | -6.17 |
| Cc1ccccc1CC(=O)N1C[C@@H]2COC[C@]2(CN(C)C)C1 | -6.68 |
| O=C([C@@H]1C[C@@H]2CCN(Cc3ccc4c(c3)OCO4)C[C@@H]2O1)N1CCCC1 | -11.1 |
| Cc1nc(CN2CCO[C@H]3[C@H](OCC(=O)N(C)C)CC[C@@H]32)cs1 | 17.3 |
| Cn1nccc1-c1nnn2c1COC(CNCc1nccs1)C2 (centres undefined) | 0.565 |
| Cc1cccc(CN2CCCn3c(nnc3Cn3cccn3)C2)n1 | 10.9 |
| O=C1COC2(CCN(c3ncccn3)CC2)CN1Cc1ccccn1 | -5.98 |
| Cc1nnn2c1COC(CNCc1nccs1)C2 (centres undefined) | 2.74 |
| CC(=O)N1CCC2(CCN(Cc3ccccn3)C2=O)C1 (centres undefined) | 3.63 |
| O=C(C1CC=CC1)N1CCC2(CCN(Cc3ccccn3)C2=O)C1 (centres undefined) | 5.7 |
| CC(C)N1CCOCC2(CCCN(C(=O)CCc3cccnc3)C2)C1 (centres undefined) | -6.39 |
| COc1cc(N2CCC3(CCCN(C(=O)c4cnccn4)C3)C2)ncn1 (centres undefined) | 17 |
| O=C(c1cccnc1)N1CCC2(CC1)CC(Oc1ccccc1)CO2 (centres undefined) | 26.5 |
| Cc1noc(C)c1CN1CCO[C@H]2CN(C(=O)C3CCOCC3)C[C@H]21 | -0.225 |

| SMILES | cytotoxicity at 70.5 h [%] |
| --- | --- |
| c1cnc(N2CCOC3(CCN(CC4CCOC4)CC3)C2)nc1 (centres undefined) | 2.18 |
| O=C(c1cnccn1)N1CCCC2(CCN(c3ncccn3)C2)C1 (centres undefined) | 4.46 |
| Cc1ccc(N2CCC3(CCN(C(=O)c4ccoc4)CC3)CC2)nn1 | -4.56 |
| Cn1ccc(C(=O)N2C[C@H]3CCC[C@@]3(COCc3cccnc3)C2)n1 | -0.791 |
| CN1CC[C@H]2OCC[C@@H](C(=O)NCc3ccco3)[C@@H]2C1 | 9.03 |
| Cc1ccc(S(=O)(=O)N2CC[C@H]3CO[C@H](CN(C)C)[C@H]3C2)cc1 | -6.81 |
| CN1CCOCC2(CCCN(C(=O)c3ccc(-n4cccc4)cc3)C2)C1 (centres undefined) | 9.26 |
| Fc1cnc(N2CCCC3(COCCN(c4nccs4)C3)C2)nc1 (centres undefined) | -12.2 |
| Cc1ccc(C(=O)N2C[C@H]3CCC[C@@]3(COc3ccccn3)C2)nc1 | 11.3 |
| COCC1CC2(CCN(Cc3ccoc3)CC2)CN1C(C)C (centres undefined) | -9.47 |
| O=C(Nc1cccnc1)[C@H]1C[C@H]2OCC[C@H]2N(CC2CC2)C1 | -14.8 |
| CCN(C)c1ncnc2c1CCN(Cc1ccsc1)CC2 | 0.529 |
| Cc1cccc(N2CCC3(CCCN(C(=O)c4cccnc4)C3)C2)n1 (centres undefined) | 18.7 |
| Cc1cccc(N2CCC3(CCCN(C(=O)c4cccnc4)C3)CC2)n1 | 0.517 |
| c1cnc(N2C[C@H]3CN(CC4CCOC4)C[C@H]3C2)nc1 (some centres undefined) | -4.56 |
| c1cnc(N2CCC3(CCN(CC4CCOCC4)CC3)C2)nc1 | 0.659 |
| CN1CC(=O)N(c2ccccc2)CC12CCN(CC1CCOCC1)C2 (centres undefined) | 22.5 |
| Cc1cccc(N2CCC3(CCN(C(=O)c4cccnc4)CC3)C2)n1 | 14 |
| c1cnc(N2CCC3(COCCN(CC4CCOCC4)C3)C2)nc1 (centres undefined) | 3.27 |
| O=c1cc(Cn2cncn2)nc2n1CCCN(CCN1CCCC1)C2 | -9.08 |
| Cc1nc(CO[C@@H]2CC[C@H]3[C@H]2OCCN3Cc2cccnc2)cs1 | 14.5 |
